This is an account of results in patent US20240287074A1, “SALTS AND CRYSTALS” (Kinoxis Therapeutics Pty Ltd, priority 2020, published 2024).

Format in all cases: physicochemical
The nature of data set [1]: Primary salt screen: XRPD pattern after drying and after 40° C./75% RH. As to conditions: for Post-Drying (XRPD pattern): oven at 40° C. for about 24 hours; for Post 40° C./75% RH (XRPD pattern): stability chamber at 40° C./75% RH for about 24 hours; for Comments (stability): salt screen summary. The protocol:
The following procedure was used: • Approximately 30 mg of 1-methyl-1,4,5,10-tetrahydropyrazolo[3,4-b][1,5]benzodiazepine freebase was weighed into 5×1.5 mL glass vials. • 300 μL of selected solvent system was added to each vial to form a mobile slurry, and a beige slurry was observed. • 1.05 (or 0.525 for the hemi experiments) equivalents of acid counterion (see Table 1) was added to each sample and initial observations were recorded. • The samples were temperature cycled between ambient and 40° C. in 4-hour cycles for about 72 hours. • The samples were collected, and observations made. • Samples in which solids were observed were filtered via centrifugation and the solids were loaded onto a multi-well XRPD plate and analyzed by XRPD. • Samples in which no solids were observed were uncapped and left undisturbed to allow evaporation at ambient temperature.

A short description of data set [2]: 1-week stability studies (XRPD, HPLC). The protocol: The isolated 1-methyl-1,4,5,10-tetrahydropyrazolo[3,4-b][1,5]benzodiazepine freebase was characterized by TG/DTA, DSC, DVS with post-DVS, XRPD, HPLC, ^1H NMR and LC-MS, as per the methods detailed above. The 1-methyl-1,4,5,10-tetrahydropyrazolo[3,4-b][1,5]benzodiazepine freebase was stored at 40° C./75% relative humidity (RH) for 1 week to determine the stability of the material at increased RH and to identify potential hydrate formation.
One-week stability studies were conducted on the freebase (example 1), phosphate form 1 (example 3) and L-tartrate form 1 (example 5) salts using the following procedures: • Approximately 20 mg of each form was weighed into 3×2 mL glass vials. • One vial for each form was stored under the following conditions for 1-week: • 1. Ambient temperature, light and humidity (unsealed vial) • 2. 40° C./75% RH (unsealed vial) • 3. 80° C. (sealed vial) • The samples were collected after 1-week and observations were made. • The solids were analyzed by XRPD and HPLC.

Data set [3] in a line: Dynamic / gravimetric vapour sorption (DVS/GVS) hygroscopicity. Here is the method: Approximately, 10-20 mg of sample was placed into a mesh vapour sorption balance pan and loaded into a DVS Intrinsic dynamic vapour sorption balance by Surface Measurement Systems. The sample was subjected to a ramping profile from 40-90% relative humidity (RH) at 10% increments, maintaining the sample at each step until a stable weight had been achieved (dm/dt 0.004%, minimum step length 30 minutes, maximum step length 500 minutes) at 25° C. After completion of the sorption cycle, the sample was dried using the same procedure to 0% RH and then a second sorption cycle back to 40% RH. Two cycles were performed. The weight change during the sorption/desorption cycles were plotted, allowing for the hygroscopic nature of the sample to be determined. XRPD analysis was then carried out on any solid retained.
Approximately 10-20 mg of sample was placed into a mesh vapour sorption balance pan and loaded into an IGASorp Moisture Sorption Analyser balance by Hiden Analytical. The sample was subjected to a ramping profile from 40-90% relative humidity (RH) at 10% increments, maintaining the sample at each step until a stable weight had been achieved (98% step completion, minimum step length 30 minutes, maximum step length 60 minutes) at 25° C. After completion of the sorption cycle, the sample was dried using the same procedure to 0% RH, and finally taken back to the starting point of 40% RH. Two cycles were performed. The weight change during the sorption/desorption cycles were plotted, allowing for the hygroscopic nature of the sample to be determined.

A short description of data set [4]: Thermodynamic solubility in PBS buffer pH 7.4. The protocol:
The thermodynamic solubility of freebase (example 1), phosphate form 1 (example 3) and L-tartrate form 1 (example 5) were assessed in phosphate buffered saline (PBS) buffer at pH 7.4 according to the following procedure: • Approximately 30 mg of each form was weighed into 2 mL glass vials. • 100 μL of buffer solution was added to each vial until partial dissolution was observed. • The observed slurries were agitated at ambient temperature for about 24 hours. • The samples were collected, and observations were recorded. • The samples were filtered via centrifugation. • The pH of the mother liquors were recorded. • The concentration of the mother liquors were recorded by HPLC.

Converted amounts (≈) assume the structure as drawn. “Also recorded” adds a separate entry of the source. Structures can show the parent of a compound that is named as a salt.

For orientation: solubility means the concentration that dissolves in the medium under given conditions.

With `Cn1ncc2c1Nc1ccccc1NC2` [Isethionate pattern 2], in data set [1], the “Post-Drying (XRPD pattern)” value is “Pattern 2” and the “Post 40° C./75% RH (XRPD pattern)” value is “Pattern 3”.
In the same order, the values of `Cn1ncc2c1Nc1ccccc1NC2` [Sulfate pattern 3] are “Pattern 3” and “Pattern 3”.
As to `Cn1ncc2c1Nc1ccccc1NC2` [freebase, 1-Methyl-1,4,5,10-tetrahydropyrazolo[3,4-b][1,5]benzodiazepine], the “changes in form or purity” value in data set [2] (1 week at 40° C./75% RH and 80° C.) was “no changes in form or purity”. Further, in data set [2] (1 week under ambient conditions (temperature, light, humidity)), the “XRPD diffractogram after storage” value was “An additional peak was observed”. Besides, in data set [2] (40° C./75% RH for 1 week), the “changes in pattern/form by XRPD post-storage” value is “No significant changes in pattern; also recorded: no changes in form”. In addition, the “stability under ambient light” value in data set [2] (conclusion of 1-week stability study) is listed as “may be unstable under ambient light”. In addition, the “changes in purity by HPLC” value in data set [2] (stored under ambient conditions) is on record as “did not show any significant changes in purity”. The “change in form by XRPD post-DVS analysis” value in data set [3] was “No change in form”. In addition, the “hygroscopicity by DVS” value in data set [3] (above 70% RH) was “hygroscopic”; in data set [3] (between 0 and 70% RH), “non-hygroscopic”. Moreover, the DVS mass increase result in data set [3] (between 0 and 70% RH) is given as “about 0.11%”; in data set [3] (between 70 and 90% RH), “about 2.74%”. This compound also registered a solubility in data set [4] (PBS buffer at pH 7.4, ambient temperature, about 24 hours, HPLC) of 300 µg/mL (≈ 1500 µM). Further, the “pH (t = 24 h)” value in data set [4] (mother liquor of PBS pH 7.4 slurry) is reported as 7.32.
Consider `Cn1ncc2c1Nc1ccccc1NC2` [Esylate pattern 1], for which, in data set [1], the “Post-Drying (XRPD pattern)” value is given as “Pattern 1” and the “Post 40° C./75% RH (XRPD pattern)” value is “Pattern 2”.
`Cn1ncc2c1Nc1ccccc1NC2` [Napadisylate pattern 2]: in data set [1], the “Post-Drying (XRPD pattern)” value was “Pattern 2” and the “Post 40° C./75% RH (XRPD pattern)” value is “Pattern 2”.
With `Cn1ncc2c1Nc1ccccc1NC2` [Napsylate pattern 2], in data set [1], the “Post-Drying (XRPD pattern)” value was “Pattern 2” and the “Post 40° C./75% RH (XRPD pattern)” value is on record as “Pattern 2”.
Turning to `Cn1ncc2c1Nc1ccccc1NC2` [Tosylate pattern 3], in data set [1], the “Post-Drying (XRPD pattern)” value is recorded as “Pattern 3” and the “Post 40° C./75% RH (XRPD pattern)” value is given as “Pattern 3”.
Regarding `Cn1ncc2c1Nc1ccccc1NC2` [Napsylate pattern 1], in data set [1], the “Post-Drying (XRPD pattern)” value is listed as “Pattern 1”, the “Comments (stability)” value is reported as “Good” and the “Post 40° C./75% RH (XRPD pattern)” value was “Pattern 2”.
For `Cn1ncc2c1Nc1ccccc1NC2` [Isethionate pattern 1], in data set [1], the “Post-Drying (XRPD pattern)” value was “Pattern 1” and the “Post 40° C./75% RH (XRPD pattern)” value was “Pattern 3”.
Take `Cn1ncc2c1Nc1ccccc1NC2` [Esylate pattern 2]: in data set [1], the “Post-Drying (XRPD pattern)” value is on record as “Pattern 2” and the “Post 40° C./75% RH (XRPD pattern)” value was “Pattern 2”.
Take `Cn1ncc2c1Nc1ccccc1NC2` [Sulfate pattern 2]: in data set [1], the “Post-Drying (XRPD pattern)” value was “Pattern 2” and the “Post 40° C./75% RH (XRPD pattern)” value is given as “Pattern 2”.
With `Cn1ncc2c1Nc1ccccc1NC2` [Tosylate pattern 1], in data set [1], the “Post-Drying (XRPD pattern)” value is “Pattern 1”, the “Comments (stability)” value is on record as “Good” and the “Post 40° C./75% RH (XRPD pattern)” value was “Pattern 1”.
For `Cn1ncc2c1Nc1ccccc1NC2` [Hydrobromide pattern 2], in data set [1], the “Post-Drying (XRPD pattern)” value is “Pattern 2” and the “Post 40° C./75% RH (XRPD pattern)” value is recorded as “Pattern 2”.
Regarding `Cn1ncc2c1Nc1ccccc1NC2` [Mesylate pattern 3], in data set [1], the “Post-Drying (XRPD pattern)” value was “Pattern 3” and the “Post 40° C./75% RH (XRPD pattern)” value is “Deliquesced”.
On to `Cn1ncc2c1Nc1ccccc1NC2` [Mesylate pattern 2], for which, in data set [1], the “Post-Drying (XRPD pattern)” value was “Pattern 2” and the “Post 40° C./75% RH (XRPD pattern)” value is listed as “Pattern 1”.
With `Cn1ncc2c1Nc1ccccc1NC2` [Hydrobromide pattern 1], in data set [1], the “Post-Drying (XRPD pattern)” value was “Pattern 1”, the “Comments (stability)” value was “Good” and the “Post 40° C./75% RH (XRPD pattern)” value is recorded as “Pattern 1”.
Consider `Cn1ncc2c1Nc1ccccc1NC2` [Maleate pattern 1], for which, in data set [1], the “Post-Drying (XRPD pattern)” value is on record as “Pattern 1” and the “Post 40° C./75% RH (XRPD pattern)” value is “Pattern 1”.
For `Cn1ncc2c1Nc1ccccc1NC2` [Napadisylate pattern 1], in data set [1], the “Post-Drying (XRPD pattern)” value is reported as “Pattern 1”, the “Comments (stability)” value is on record as “Good” and the “Post 40° C./75% RH (XRPD pattern)” value was “Pattern 1”.
As for `Cn1ncc2c1Nc1ccccc1NC2` [Edisylate pattern 1], in data set [1], the “Post-Drying (XRPD pattern)” value is on record as “Pattern 1”, the “Comments (stability)” value is “Good” and the “Post 40° C./75% RH (XRPD pattern)” value is recorded as “Pattern 2”.
Take `Cn1ncc2c1Nc1ccccc1NC2` [Sulfate pattern 1]: in data set [1], the “Post-Drying (XRPD pattern)” value is reported as “Pattern 1” and the “Post 40° C./75% RH (XRPD pattern)” value was “Pattern 4”.
In the case of `Cn1ncc2c1Nc1ccccc1NC2` [Besylate pattern 1], in data set [1], the “Post-Drying (XRPD pattern)” value was “Pattern 1” and the “Post 40° C./75% RH (XRPD pattern)” value is reported as “Pattern 1, 2”.
Consider `Cn1ncc2c1Nc1ccccc1NC2` [Mesylate pattern 1], for which, in data set [1], the “Post-Drying (XRPD pattern)” value was “Pattern 1” and the “Post 40° C./75% RH (XRPD pattern)” value was “Pattern 1/2”.
For the compound `Cn1ncc2c1Nc1ccccc1NC2` [Tosylate pattern 2], in data set [1], the “Post-Drying (XRPD pattern)” value is recorded as “Pattern 2” and the “Post 40° C./75% RH (XRPD pattern)” value was “Pattern 2”.
As to `Cn1ncc2c1Nc1ccccc1NC2` [Edisylate pattern 2], in data set [1], the “Post-Drying (XRPD pattern)” value is “Pattern 2” and the “Post 40° C./75% RH (XRPD pattern)” value is “Pattern 2”.
